Results reported in patent US20120115742A1, “METHODS FOR IDENTIFICATION” (Cambridge Enterprise Limited, priority 2009, published 2012).

Experiments:
[1] = tested on: fetal rat pituicytes; experiment: Rat pituicyte GH suppression assay; assay type: cell-based; conditions: Table 3
Source text: Two different assays for “classical” sstr2 functions were adopted: (1) cultured foetal rat pituitary cells secreted growth hormone which is inhibited by sstr2 agonists in a dose-dependent fashion and (2) selected glucose-sensitive sub-clones of the human Panc-1 cell line secrete insulin which is inhibited by sstr2 agonists in a dose-dependent fashion.
Methods: Cultures of fetal rat pituicytes were established exactly as previously described (Murray et al. (2004) J. Clin. Endocrinol. Metab. 89:3027-32) by enzymatic dispersion. After 48 hrs in low glucose DMEM plus 10% FCS, cells in 48 well plates (5×10^4 cells per well) were washed for 4 hrs in serum-free DMEM and then incubated with test agents at various concentrations for a further 24 hrs in serum-free DMEM. At the end of this period, the conditioned medium was harvested, any cell debris removed by centrifugation and assayed for […] using a commercially available ELISA (Linco; cat# EZRMGH-45K) in accordance with the manufacturer's instructions.
Results were reported as the mean SD, expressed as the fold change from cells in the presence of vehicle only.

[2] = tested on: Jurkat-D3B cells; experiment: SDF-1α induced migration of Jurkat-D3B cells expressing sstr2; assay type: cell-based, human; conditions: Jurkat-D3B versus parental Jurkat
Protocol: Methods: Total mRNA was prepared from Panc-1 cells (a human pancreas cell line which is well known to express high levels of sstr2) using the RNAqueous 4PCR kit (Ambion, Cat code #1914) in accordance with the manufacturer's instructions. The mRNA was then reverse transcribed (using the RETROscript kit; Ambio) to yield a cDNA preparation. A full length cDNA of the sstr2 gene was then obtained by PCR (using a Peltier PTC-200 thermal cycler using the following cycle times and conditions: 94° C. for 2 min, followed by 30 cycles of 94° C., for 30 sec, 55° C. for 30 sec, 72° C. for 1 min and finally 72° C. for 10 min), and isolated by preparative gel electrophoresis. The sequence of the sstr2 cDNA was confirmed by sequencing. The sstr2 cDNA was treated with EcoRI and Xhol to generate sticky ends, which allowed directional cloning into the polylinker of the plasmid pcDNA3.1+ (Invitrogen) followed by ligation ([…] ligation reactions were run with 400 T4 DNA ligase (New England Biolabs) and the maximal amounts of DNA with an insert:plasmid ratio of 3:1 in ligase buffer incubated overnight at 13° C.). […]
A number of individual cell lines were obtained in this way, which expressed significant levels of sstr2 on the cell surface, detected by flow cytometry using the human-sstr2 antibody (Sigma, 50694; see Example 3 for details of the flow cytometry protocol used). […]

(S)-3-(2′,2′-dimethyldodecanoyl)amino-caprolactam [BN83250]
EC50 ([1]; read-out: Rat pituicyte GH suppression assay ED50): 320 nM | Rat pituicyte GH suppression assay Max effect ([1]; suppression compared to vehicle): 63% | increase in BSCI sensitivity by ectopic expression of sstr2 [2]: more than 100 fold
